# Measurements published in US20240150270A1, “METHOD FOR SELECTIVE RECOVERY OF LIPOPHILIC COMPOUNDS” (priority 2021, published 2024).
# Assays:
# [1] = Capture and release of target molecule by cross-linked polymer (HDI-linked cyclodextrin), slurry protocol; assay type: physicochemical; conditions: Example 9; 2 mg/mL in 1:1 ethanol:water, 10:1
# Protocol: A mass of CBD was dissolved in ethanol to form a stock solution. A reference sample of the stock solution was diluted with ethanol to obtain a target CBD or other target molecule concentration for a reference measurement. A reaction sample was taken from the remaining stock solution. A cross-linked polysaccharide was combined with the reaction sample in a ratio relative to the CBD or other target molecule concentration present in the reaction sample (by mass) as specified in Examples. The cross-linked polymer is HDI-linked cyclodextrin prepared with a ratio of 8:1 HDI to cyclodextrin.
# Water is combined with the reaction sample until the reaction sample reaches a target CBD or other target molecule concentration, and a target ethanol to water ratio. The reaction mixture including the water is filtered at a cutoff size of between 75 μm to 4,000 μm aperture size, or exposed to a magnetic field with a neodymium magnet through the wall of a flask, to retrieve the cross-linked polymer bound with CBD or other target molecule concentration. Once retrieved, the cross-linked polymer is flushed with a dissociation fluid for dissolving the target molecule.
# Ten milligrams of CBD were dissolved in a 10 mL mixture of 1:1 ethanol to water to produce a reaction mixture with a CBD concentration of 1 mg/mL. A 1 mL aliquot was then taken from the reaction mixture as a reference sample (t=0). […]
# [2] = Dissolution of CBD in ethanol:water mixtures; assay type: physicochemical
# Protocol: The protocol of Example 9 was followed with the 60 mg initially dissolved in ethanol only. […] The remaining five portions were diluted to an ethanol to water ratio of 7:3, 6:4, 5:5, 4:6 or 3:7. The portions were then filtered to retrieve the cross-linked polymer.
# At 50:50 EtOH:H2O, CBD dissolves provided that EtOH is added first then H2O. At 45:56 EtOH:H2O, the 2 mg/mL CBD solution is cloudy. […] Slowly adding H2O to the CBD, EtOH, polymer mixture results in very high capture of 98% at a 3:7 EtOH:H2O.
# The portions were filtered by pipette filtration to retrieve the cross-linked polymer. The cross-linked polymer was then flushed with DMSO. […] Ten percent of the CBD is not in solution when CBD in 3:7 EtOH:H2O is used. The calculated cyclodextrin capacity within the polymer is 8:1 polymer:CBD.
structure (smiles),measurement,setting,value
"C=C(C)[C@@H]1CCC(C)=C[C@H]1c1c(O)cc(CCCCC)cc1O [CBD, cannabidiol]",time to capture plateau,[1],about 5 minutes
same,dissolution of CBD,"[2]; 6 mg/mL in 1:1 EtOH:H2O, sonication and heating",did not dissolve
same,dissolution of CBD,"[2]; 40:60 EtOH:H2O, 2 mg/mL",not fully dissolved
same,dissolution of CBD,"[2]; 45:56 EtOH:H2O, 2 mg/mL",cloudy
same,dissolution of CBD,"[2]; 50:50 EtOH:H2O, 2 mg/mL, EtOH added first then H2O",dissolves
same,CBD not in solution,"[2]; CBD in 3:7 EtOH:H2O, Example 17",Ten
